Source: PMC10456528, “Purification and Molecular Docking Study on the Angiotensin I-Converting Enzyme (ACE)-Inhibitory Peptide Isolated from Hydrolysates of the Deep-Sea Mussel Gigantidas vrijenhoeki” (Marine Drugs, 2023)
Ends that are not written are not given here. Peptide text beside a SMILES is read from it.

B1: G. vrijenhoeki peptide (GVP)-1 (peptide)
peptide: KLQE
B2: G. vrijenhoeki peptide (GVP)-10 (peptide)
peptide: KLLWNGKM
B3: G. vrijenhoeki peptide (GVP)-11 (peptide)
peptide: YALPHAL
B4: G. vrijenhoeki peptide (GVP)-2 (peptide)
peptide: KVLH
B5: G. vrijenhoeki peptide (GVP)-3 (peptide)
peptide: KVHL
B6: G. vrijenhoeki peptide (GVP)-5 (peptide)
peptide: PSLVG
B7: G. vrijenhoeki peptide (GVP)-6 (peptide)
peptide: LNSL
B8: G. vrijenhoeki peptide (GVP)-7 (peptide)
peptide: ALRPKF
B9: G. vrijenhoeki peptide (GVP)-8 (peptide)
peptide: PGLADMR

Tests used:
[1] = biological target: T1, angiotensin I-converting enzyme (ACE) (Homo sapiens, UniProt P12821); assay: ACE inhibitory activity assay (Dojindo ACE Kit); type: biochemical; design: purchased Dojindo Laboratories, Kumamoto, Japan; settings: synthetic peptides with the sequences identified in <1 kDa fraction; triplicate experiments
Procedure: ACE inhibitory activity was measured using the Dojindo ACE Kit-WET kit (Dojindo Laboratories, Kumamoto, Japan), according to the manufacturer’s instructions. The ACE-inhibitory activity was calculated as follows: ACE inhibitory activity (%)=Acontrol−Asample/Acontrol−Ablank×100% where Acontrol is the absorbance of the positive control, Ablank is the absorbance of the blank containing distilled water, and Asample is the absorbance of the sample. The IC50 value was determined as the concentration of inhibitor required to inhibit 50% of the ACE activity.
Target sequence in this assay (P12821 30-1306, species assumed): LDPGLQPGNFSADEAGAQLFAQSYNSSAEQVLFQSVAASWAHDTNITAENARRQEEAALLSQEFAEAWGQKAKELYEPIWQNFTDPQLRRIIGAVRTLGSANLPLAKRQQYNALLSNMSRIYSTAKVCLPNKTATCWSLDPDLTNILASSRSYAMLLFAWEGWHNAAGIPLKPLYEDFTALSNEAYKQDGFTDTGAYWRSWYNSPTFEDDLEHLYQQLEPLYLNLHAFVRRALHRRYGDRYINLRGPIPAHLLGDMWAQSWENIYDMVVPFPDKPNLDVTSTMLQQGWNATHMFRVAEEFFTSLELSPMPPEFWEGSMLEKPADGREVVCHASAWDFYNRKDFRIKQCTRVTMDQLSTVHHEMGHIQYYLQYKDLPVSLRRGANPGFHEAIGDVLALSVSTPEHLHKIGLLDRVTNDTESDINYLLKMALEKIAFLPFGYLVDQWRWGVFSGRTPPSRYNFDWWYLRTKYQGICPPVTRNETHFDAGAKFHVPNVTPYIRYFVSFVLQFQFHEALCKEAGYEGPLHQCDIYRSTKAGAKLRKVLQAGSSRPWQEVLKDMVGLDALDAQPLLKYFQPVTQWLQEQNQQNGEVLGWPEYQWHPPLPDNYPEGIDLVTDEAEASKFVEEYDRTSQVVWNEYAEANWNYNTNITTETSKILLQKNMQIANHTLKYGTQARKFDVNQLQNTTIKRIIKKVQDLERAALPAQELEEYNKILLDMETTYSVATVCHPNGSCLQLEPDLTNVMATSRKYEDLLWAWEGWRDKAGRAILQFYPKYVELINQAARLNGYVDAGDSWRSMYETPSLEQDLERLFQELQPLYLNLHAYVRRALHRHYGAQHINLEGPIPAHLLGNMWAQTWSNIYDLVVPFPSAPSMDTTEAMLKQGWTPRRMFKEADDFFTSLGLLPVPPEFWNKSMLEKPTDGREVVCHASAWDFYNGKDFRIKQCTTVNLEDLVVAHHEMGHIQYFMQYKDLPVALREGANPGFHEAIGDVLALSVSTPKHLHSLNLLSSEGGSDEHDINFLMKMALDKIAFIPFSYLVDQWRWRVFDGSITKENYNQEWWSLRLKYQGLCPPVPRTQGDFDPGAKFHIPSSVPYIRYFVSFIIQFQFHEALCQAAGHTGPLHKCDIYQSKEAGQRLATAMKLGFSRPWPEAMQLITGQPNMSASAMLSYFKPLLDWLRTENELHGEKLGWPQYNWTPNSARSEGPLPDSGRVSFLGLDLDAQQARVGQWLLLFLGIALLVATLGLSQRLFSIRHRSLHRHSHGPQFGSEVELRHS

[2] = biological target: T1, angiotensin I-converting enzyme (ACE)
Target sequence in this assay (P12821 30-1256): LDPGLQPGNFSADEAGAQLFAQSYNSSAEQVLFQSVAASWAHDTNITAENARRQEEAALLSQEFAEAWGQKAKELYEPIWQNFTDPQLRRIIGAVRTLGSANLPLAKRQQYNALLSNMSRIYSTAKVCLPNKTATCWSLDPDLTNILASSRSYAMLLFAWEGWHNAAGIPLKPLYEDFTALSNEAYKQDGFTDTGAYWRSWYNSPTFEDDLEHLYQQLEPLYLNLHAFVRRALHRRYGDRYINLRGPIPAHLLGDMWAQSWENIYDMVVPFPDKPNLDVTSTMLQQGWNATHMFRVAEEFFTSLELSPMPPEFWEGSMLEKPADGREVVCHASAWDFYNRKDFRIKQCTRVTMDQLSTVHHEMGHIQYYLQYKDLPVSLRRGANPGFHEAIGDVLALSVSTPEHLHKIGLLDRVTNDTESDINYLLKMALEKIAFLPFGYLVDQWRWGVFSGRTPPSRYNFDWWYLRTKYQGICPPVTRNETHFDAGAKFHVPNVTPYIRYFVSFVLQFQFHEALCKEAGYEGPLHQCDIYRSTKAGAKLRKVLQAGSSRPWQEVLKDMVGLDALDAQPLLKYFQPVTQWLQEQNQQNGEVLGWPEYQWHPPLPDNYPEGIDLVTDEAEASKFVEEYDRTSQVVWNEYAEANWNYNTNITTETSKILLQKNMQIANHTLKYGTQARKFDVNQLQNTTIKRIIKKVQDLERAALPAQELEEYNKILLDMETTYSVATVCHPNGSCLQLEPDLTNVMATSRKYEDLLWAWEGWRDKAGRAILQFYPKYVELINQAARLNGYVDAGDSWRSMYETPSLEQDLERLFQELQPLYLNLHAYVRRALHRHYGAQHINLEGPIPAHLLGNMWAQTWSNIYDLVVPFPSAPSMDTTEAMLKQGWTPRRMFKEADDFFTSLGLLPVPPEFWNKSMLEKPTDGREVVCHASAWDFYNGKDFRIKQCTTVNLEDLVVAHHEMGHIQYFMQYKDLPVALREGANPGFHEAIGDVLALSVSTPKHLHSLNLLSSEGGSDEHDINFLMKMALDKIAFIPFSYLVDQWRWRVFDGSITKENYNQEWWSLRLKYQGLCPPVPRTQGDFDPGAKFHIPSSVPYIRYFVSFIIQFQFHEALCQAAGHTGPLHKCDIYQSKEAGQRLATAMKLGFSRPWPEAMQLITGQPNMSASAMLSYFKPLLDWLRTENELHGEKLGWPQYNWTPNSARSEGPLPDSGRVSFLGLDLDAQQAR

Row | Molecule | IC50 [1] | IC50 of ACE inhibitory activity (enzyme activity, Dojindo ACE kit, synthetic peptide) [2]
1 | CC(C)C[C@H](NC(=O)[C@@H](N)CC(C)C)C(=O)N[C@@H](CCCNC(=N)N)C(=O)O [GVP-9, LLR] | 435 ± 7 nM | 
2 | PSLVG [GVP-5, PSLVG] | 582 ± 8 nM | 
3 | CC(C)C[C@H](NC(=O)[C@@H](N)CCCCN)C(=O)N[C@@H](CCC(N)=O)C(=O)N[C@@H](CCC(=O)O)C(=O)O [GVP-1, KLQE] (H-KLQE-OH) | 2960 ± 165 nM | 
4 | YALPHAL [GVP-11, YALPHAL] | 795 ± 15 nM | 
5 | CC(C)C[C@H](NC(=O)[C@@H](NC(=O)[C@@H](N)CCCCN)C(C)C)C(=O)N[C@@H](Cc1c[nH]cn1)C(=O)O [GVP-2, KVLH] (H-KVLH-OH) | 162 ± 2 nM | 
6 | PGLADMR [GVP-8, PGLADMR] | 513 ± 2 nM | 
7 | CC(C)C[C@H](NC(=O)[C@H](CO)NC(=O)[C@H](CC(N)=O)NC(=O)[C@@H](N)CC(C)C)C(=O)O [GVP-6, LNSL] (H-LNSL-OH; N-terminus and C-terminus assumed) | 1390 ± 11 nM | 
8 | CC(C)C[C@H](N)C(=O)N[C@H](C(=O)N[C@@H](CCCNC(=N)N)C(=O)O)C(C)C [GVP-4, LVR] (H-Leu-Val-Arg-OH; N-terminus and C-terminus assumed) | 67 ± 5 nM | 
9 | ALRPKF [GVP-7, ALRPKF] | 24 ± 17 nM | 
10 | KLLWNGKM [GVP-10, KLLWNGKM] | 7 ± 2 nM | 
11 | CC(C)C[C@H](NC(=O)[C@H](Cc1c[nH]cn1)NC(=O)[C@@H](NC(=O)[C@@H](N)CCCCN)C(C)C)C(=O)O [GVP-3, KVHL] (H-KVHL-OH) | 292 ± 13 nM | 
12 | B1 |  | 2960 nM
13 | B2 |  | 7 nM
14 | B3 |  | 795 nM
15 | B4 |  | 162 nM
16 | B5 |  | 292 nM
17 | B6 |  | 582 nM
18 | B7 |  | 1390 nM
19 | B8 |  | 24 nM
20 | B9 |  | 513 nM
